In brackets after ≈: the same amount, converted by molar mass.
Assays:
[1] = system: S. epidermidis ATCC 12228; assay: MIC, NCCLS broth microdilution assay; format: cell-based, Staphylococcus epidermidis
Description: (§1) In vitro biological activity data were collected for a variety of microorganisms, including Bacillus cereus (ATCC 11778), Staphylococcus aureus (ATCC 33591; ATCC 27660, a methicillin resistant strain (MRSA); ATCC 13709, a methicillin sensitive strain (MSSA)), Escherichia coli (ATCC 25922), Enterococcus faecalis (ATCC 29212), Streptococcus pneumoniae (ATCC 49619; ATCC 51422, a penicillin resistant strain (PRSP)), Enterococcus faecium (ATCC 51559, a vancomycin resistant strain (VRE)), and Staphylococcus epidermidis (ATCC 12228).
(§2) The minimal inhibition concentration (MIC) of these compounds was determined using the National Committee for Clinical Laboratory Standards (NCCLS) broth microdilution assay in microtiter plates, as set forth in: (1) the guidelines of the National Committee for Clinical Laboratory Standards (NCCLS) Document M7-A4 (NCCLS, 1997); (2) the guidelines of the National Committee for Clinical Laboratory Standards (NCCLS) Document M11-A4 (NCCLS, 1997); and (3) the guidelines and reference method of the National Committee for Clinical Laboratory Standards (NCCLS) Document M27 -T (NCCLS, 1995).

S. pneumoniae ATCC 49619 = assay: MIC, NCCLS broth microdilution assay; format: cell-based, Streptococcus pneumoniae; conditions: S. pneumoniae ATCC 49619
B. cereus ATCC 11778 = assay: MIC, NCCLS broth microdilution assay; format: cell-based, Bacillus cereus; conditions: B. cereus ATCC 11778
C. albicans ATCC 38247 = assay: MIC, antifungal assay; format: cell-based, Candida albicans; conditions: C. albicans ATCC 38247
Description: In vitro biological activity data were collected for a variety of microorganisms, including Bacillus cereus (ATCC 11778), Staphylococcus aureus (ATCC 33591; ATCC 27660, a methicillin resistant strain (MRSA); ATCC 13709, a methicillin sensitive strain (MSSA)), Escherichia coli (ATCC 25922), Enterococcus faecalis (ATCC 29212), Streptococcus pneumoniae (ATCC 49619; ATCC 51422, a penicillin resistant strain (PRSP)), Enterococcus faecium (ATCC 51559, a vancomycin resistant strain (VRE)), and Staphylococcus epidermidis (ATCC 12228). Additionally, antifungal activity data were collected for Candida albicans (ATCC 38247).
The minimal inhibition concentration (MIC) of these compounds was determined using the National Committee for Clinical Laboratory Standards (NCCLS) broth microdilution assay in microtiter plates, as set forth in: (1) the guidelines of the National Committee for Clinical Laboratory Standards (NCCLS) Document M7-A4 (NCCLS, 1997); (2) the guidelines of the National Committee for Clinical Laboratory Standards (NCCLS) Document M11-A4 (NCCLS, 1997); and (3) the guidelines and reference method of the National Committee for Clinical Laboratory Standards (NCCLS) Document M27 -T (NCCLS, 1995). For antifungal assays, the method recommended in Murray, PR., 1995 Manual of Clinical Microbiology (ASM Press, Washington, D.C.), was employed.

E. faecalis ATCC 29212 = assay: MIC, NCCLS broth microdilution assay; format: cell-based, Enterococcus faecalis; conditions: E. faecalis ATCC 29212
E. coli ATCC 25922 = assay: MIC, NCCLS broth microdilution assay; format: cell-based, Escherichia coli; conditions: E. coli ATCC 25922
S. aureus ATCC 27660 = assay: MIC, NCCLS broth microdilution assay; format: cell-based, Staphylococcus aureus; conditions: S. aureus ATCC 27660, methicillin resistant strain (MRSA)
S. aureus ATCC 13709 = assay: MIC, NCCLS broth microdilution assay; format: cell-based, Staphylococcus aureus; conditions: S. aureus ATCC 13709, methicillin sensitive strain (MSSA)
Description: as §1, §2

S. aureus ATCC 33591 = assay: MIC, NCCLS broth microdilution assay; format: cell-based, Staphylococcus aureus; conditions: S. aureus ATCC 33591

| MIC ([1]; Staphylococcus epidermidis, ATCC12228, read-out: Minimum Inhibitory Concentration (MIC)) | MIC (B. cereus ATCC 11778; Bacillus cereus, ATCC11778, read-out: Minimum Inhibitory Concentration (MIC)) | MIC (C. albicans ATCC 38247; Candida albicans, ATCC38247, read-out: Minimum Inhibitory Concentration (MIC)) | MIC (E. faecalis ATCC 29212; Enterococcus faecalis, ATCC29212, read-out: Minimum Inhibitory Concentration (MIC)) | MIC (E. coli ATCC 25922; Escherichia coli, ATCC25922, read-out: Minimum Inhibitory Concentration (MIC)) | MIC (S. aureus ATCC 27660; Staphylococcus aureus, ATCC 27660 / MRSA, read-out: Minimum Inhibitory Concentration (MIC)) | MIC (S. aureus ATCC 13709; Staphylococcus aureus, ATCC 13709 / MSSA, read-out: Minimum Inhibitory Concentration (MIC)) | MIC (S. aureus ATCC 33591; Staphylococcus aureus, ATCC33591, read-out: Minimum Inhibitory Concentration (MIC)) | SMILES | Minimum Inhibitory Concentration (MIC) [1] | Minimum Inhibitory Concentration (MIC) (S. pneumoniae ATCC 49619) | Minimum Inhibitory Concentration (MIC) (B. cereus ATCC 11778) | Minimum Inhibitory Concentration (MIC) (C. albicans ATCC 38247) | Minimum Inhibitory Concentration (MIC) (E. faecalis ATCC 29212) | Minimum Inhibitory Concentration (MIC) (E. coli ATCC 25922) | Minimum Inhibitory Concentration (MIC) (S. aureus ATCC 27660) | Minimum Inhibitory Concentration (MIC) (S. aureus ATCC 13709) | Minimum Inhibitory Concentration (MIC) (S. aureus ATCC 33591) |
| --- | --- | --- | --- | --- | --- | --- | --- | --- | --- | --- | --- | --- | --- | --- | --- | --- | --- |
| – | – | – | – | – | – | – | – | CN(CCCN)CCCNc1snc(C(=O)Nc2ccc(-c3cc4ccccc4o3)cc2)c1Cl [Compound A-8] | +++ (MIC ≦ 4) | + (12 ≦ MIC ≦ 32) | +++ (MIC ≦ 4) | ++ (4 < MIC < 12) | +++ (MIC ≦ 4) | + (12 ≦ MIC ≦ 32) | +++ (MIC ≦ 4) | +++ (MIC ≦ 4) | +++ (MIC ≦ 4) |
| – | – | – | – | – | – | – | – | O=C(Nc1ccc(-c2cc3ccccc3o2)cc1)c1cccnc1NCCCNC1CCCCC1 [Compound A-12] | + (12 ≦ MIC ≦ 32) | ++ (4 < MIC < 12) | + (12 ≦ MIC ≦ 32) | + (12 ≦ MIC ≦ 32) | ++ (4 < MIC < 12) | >32 µg/mL | – | – | – |
| < 4 µg/mL | > 32 µg/mL | 4 to 12 µg/mL (≈ 8.08 to 24.2 µM) | < 4 µg/mL | 12 to 32 µg/mL (≈ 24.2 to 64.6 µM) | < 4 µg/mL | < 4 µg/mL | < 4 µg/mL | Cc1cc(NC(=O)c2nsc(NCCN3CCCCC3)c2Cl)ccc1-c1cc2ccccc2o1 [Compound A-32] | – | – | – | – | – | – | – | – | – |
| – | – | – | – | – | – | – | – | O=C(Nc1ccc(-c2cc3ccccc3o2)nc1)c1ccc(Cl)cc1NCCN1CCNCC1 [Compound A-42] | ++ (4 < MIC < 12) | + (12 ≦ MIC ≦ 32) | ++ (4 < MIC < 12) | >32 µg/mL | ++ (4 < MIC < 12) | >32 µg/mL | ++ (4 < MIC < 12) | ++ (4 < MIC < 12) | – |
| – | – | – | – | – | – | – | – | CN1CCN(CCNc2snc(C(=O)Nc3ccc(-c4cc5ccccc5[nH]4)cc3)c2Cl)CC1 [Compound A-61] | – | >32 µg/mL | >32 µg/mL | +++ (MIC ≦ 4) | >32 µg/mL | >32 µg/mL | >32 µg/mL | >32 µg/mL | >32 µg/mL |
| – | – | – | – | – | – | – | – | O=C(Nc1ccc(-c2cc3ccccc3[nH]2)cc1)c1cccnc1NCCN1CCOCC1 [Compound A-66] | – | >32 µg/mL | >32 µg/mL | >32 µg/mL | >32 µg/mL | >32 µg/mL | >32 µg/mL | >32 µg/mL | >32 µg/mL |
| – | – | – | – | – | – | – | – | CN(C)CCCNc1snc(C(=O)Nc2ccc(-c3cc4ccccc4s3)nc2)c1Cl [Compound A-67] | – | >32 µg/mL | +++ (MIC ≦ 4) | +++ (MIC ≦ 4) | +++ (MIC ≦ 4) | >32 µg/mL | +++ (MIC ≦ 4) | +++ (MIC ≦ 4) | +++ (MIC ≦ 4) |
| – | – | – | – | – | – | – | – | O=C(Nc1ccc(-c2cc3ccccc3s2)nc1)c1nsc(NCCN2CCCCC2)c1Cl [Compound A-69] | – | >32 µg/mL | >32 µg/mL | >32 µg/mL | >32 µg/mL | >32 µg/mL | >32 µg/mL | >32 µg/mL | >32 µg/mL |
| – | – | – | – | – | – | – | – | O=C(Nc1ccc(-c2cc3ccccc3s2)nc1)c1nsc(NCCN2CCNCC2)c1Cl [Compound A-70] | – | >32 µg/mL | >32 µg/mL | +++ (MIC ≦ 4) | +++ (MIC ≦ 4) | >32 µg/mL | +++ (MIC ≦ 4) | +++ (MIC ≦ 4) | +++ (MIC ≦ 4) |
| – | – | – | – | – | – | – | – | CN(CCCN)CCCNc1snc(C(=O)Nc2ccc(-c3cc4ccccc4s3)nc2)c1Cl [Compound A-71] | – | + (12 ≦ MIC ≦ 32) | +++ (MIC ≦ 4) | ++ (4 < MIC < 12) | +++ (MIC ≦ 4) | +++ (MIC ≦ 4) | +++ (MIC ≦ 4) | +++ (MIC ≦ 4) | +++ (MIC ≦ 4) |
| – | – | – | – | – | – | – | – | O=C(Nc1ccc(-c2cc3ccccc3s2)nc1)c1cccnc1NCCN1CCCCC1 [Compound A-72] | – | >32 µg/mL | >32 µg/mL | >32 µg/mL | >32 µg/mL | >32 µg/mL | >32 µg/mL | >32 µg/mL | >32 µg/mL |
| – | – | – | – | – | – | – | – | O=C(Nc1ccc(-c2cc3ccccc3s2)nc1)c1cccnc1NCCN1CCNCC1 [Compound A-73] | – | >32 µg/mL | >32 µg/mL | >32 µg/mL | >32 µg/mL | >32 µg/mL | >32 µg/mL | >32 µg/mL | >32 µg/mL |
| – | – | – | – | – | – | – | – | CN(C)CCCNc1ncccc1C(=O)Nc1ccc(-c2cc3ccccc3s2)nc1 [Compound A-74] | – | + (12 ≦ MIC ≦ 32) | + (12 ≦ MIC ≦ 32) | + (12 ≦ MIC ≦ 32) | ++ (4 < MIC < 12) | >32 µg/mL | + (12 ≦ MIC ≦ 32) | ++ (4 < MIC < 12) | ++ (4 < MIC < 12) |
| – | – | – | – | – | – | – | – | NCCCCNc1ncccc1C(=O)Nc1ccc(-c2cc3ccccc3s2)nc1 [Compound A-75] | – | + (12 ≦ MIC ≦ 32) | +++ (MIC ≦ 4) | >32 µg/mL | +++ (MIC ≦ 4) | >32 µg/mL | +++ (MIC ≦ 4) | +++ (MIC ≦ 4) | +++ (MIC ≦ 4) |
| – | – | – | – | – | – | – | – | CN(CCCN)CCCNc1ncccc1C(=O)Nc1ccc(-c2cc3ccccc3s2)nc1 [Compound A-76] | – | + (12 ≦ MIC ≦ 32) | + (12 ≦ MIC ≦ 32) | + (12 ≦ MIC ≦ 32) | ++ (4 < MIC < 12) | + (12 ≦ MIC ≦ 32) | +++ (MIC ≦ 4) | +++ (MIC ≦ 4) | ++ (4 < MIC < 12) |
